Activity and inhibition data for three compounds are collected here from ChEMBL document CHEMBL2157954.

The structures appear in SMILES notation. Calls of active or inactive are those of the source. The calls are words filed in the database; no cut-off is given here.

Test [1] is filed under the species Rattus norvegicus. Description: […] activity in rat with several spinal cord injury assessed as increase in locomotory function. The format is functional, organism-based.
For test [2], the species on record is Rattus norvegicus. Description: […] activity in rat with several spinal cord injury assessed as increase in voiding function. The format is functional, organism-based.
Test [3] deals with Rattus norvegicus. Description: […] activity in rat with several spinal cord injury assessed as increase in locomotory function at 20 mg/kg/day for 7 days. The test is classed as functional, organism-based.
Test [4] deals with Rattus norvegicus. Description: […] activity in rat with several spinal cord injury assessed as increase in voiding function at 20 mg/kg/day for 7 days. The format is functional, organism-based.
The next test deals with Lymphocyte. Description: Immunosuppressive activity against autoimmune lymphocytes assessed as inhibition of cell expansion. The test is classed as functional, cell-based.

Regarding `Cc1cc(NC(=O)/C(C#N)=C(\O)C2CC2)ccc1C(F)(F)F`, the outcome in the test listed under Rattus norvegicus [1] and in the test listed under Rattus norvegicus [2] was Active.
`Cc1oncc1C(=O)Nc1ccc(C(F)(F)F)cc1`: the outcome in the test with Rattus norvegicus [3] and in the test on Rattus norvegicus [4] was Active. The inhibition entry in the test with Lymphocyte is “Active”.
As to `C/C(O)=C(\C#N)C(=O)Nc1ccc(C(F)(F)F)cc1`, the result in the test filed under Rattus norvegicus [1] and in the test filed under Rattus norvegicus [2] was Active.
